# Values quoted from earlier work as cited in publication PMC3170264 (Retrovirology, 2011).
# Tested on: Y143 mutant HIV-1 integrase
# Settings: cited from earlier work
smiles,measurement,value
COc1cc2c(cc1Cc1cccc(Cl)c1F)c(=O)c(C(=O)O)cn2[C@H](CO)C(C)C [elvitegravir],activity against Y143 mutant HIV-1 integrase,fully active
